{"source": "patent EP4775209A1", "about": "(Ascentawits Pharmaceuticals, Ltd., priority 2023, dated 2025)", "key": {"[1]": {"experiment": "Toxicokinetics (D1+D8/21 Days) in monkeys", "assay_type": "in vivo, cynomolgus monkeys"}, "[2]": {"experiment": "Toxicokinetics (D1+D8/21 Days) in rats", "assay_type": "in vivo, Sprague-Dawley (SD) rats", "details": "AST-3424 3, 10, 30 mg/kg on D1, D8, D22, D29"}, "[3]": {"experiment": "Phase I clinical trial of AST-3424 in China: blood pharmacokinetics compared with US data", "assay_type": "in vivo, human", "details": "Chinese and American patients, printed as 'almost lower than'"}, "[4]": {"tested_on": "human lung cancer (H460-GFP) subcutaneous CDX model", "experiment": "Human lung cancer CDX efficacy model (QW×2 regimen)", "assay_type": "in vivo, nude mice", "details": "15 mg/kg, BIW×4, I.V.; P<0.01", "description": "Images of tumor burden in mice were non-invasively collected twice a week by a Fluor Vivo Model 100 imaging system, and the mean value of tumor area in each group was calculated based on imaging analysis results. […] The data from this experiment are the data for the H460 model in Example 3-1 of the aforementioned Patent Application 2 (see Table 5 and Figure 5 of this application)."}, "[5]": {"tested_on": "HuPrime® lung cancer LU5161 subcutaneous xenograft model", "details": "day 29 after first administration, AST-3424 1 mg/kg QD×5, 16 days off", "source_text": "(§1) For the experimental procedures and relevant evaluation indicators of the aforementioned solid tumor animal efficacy models, please refer to Examples 7, 8, and 9 in Patent Application 1, namely PCT/US2016/062114, with Publication No. WO2017/087428 (corresponding to Chinese Application CN201680044608.1, with Publication No. CN108290911B), Examples 3 and 4 in Patent Application 2, namely PCT/CN2021/078115, with Publication No. WO2022178821, and Research Literature 1. The aforementioned non-clinical animal efficacy models (PDX) mentioned in the present application are all similar to those in the aforementioned literatures, and the specific operation procedures thereof are not described herein again.\nLU5161 is a HuPrime® xenograft model established from a lung tumor (small cell lung cancer) of a patient.\n(§2) Efficacy was evaluated based on the relative tumor growth inhibition rate (TGI, %), and safety was evaluated based on animal body weight changes and mortality."}, "[6]": {"tested_on": "HuPrime® pancreatic cancer PA2637 subcutaneous xenograft model", "details": "Day 36 after first administration, AST-3424 1 mg/kg QD×5, 16 days off", "source_text": "as §1\nPA2637 is a HuPrime® xenograft model established from a pancreatic cancer tumor of a patient.\nas §2"}, "[7]": {"tested_on": "HuPrime® lung cancer LU5173 subcutaneous xenograft model", "details": "day 32 after first administration, AST-3424 1 mg/kg QD×5, 16 days off", "source_text": "as §1\nThe LU5173 is a HuPrime® xenograft model established from a lung cancer (small cell lung carcinoma) tumor of a patient.\nEfficacy was evaluated based on the relative tumor growth inhibition (TGI, %), and safety was evaluated based on animal body weight changes and mortality."}, "[8]": {"tested_on": "HuPrime® pancreatic cancer PA9451 subcutaneous xenograft model", "experiment": "Pancreatic cancer PA9451 subcutaneous xenograft efficacy model", "assay_type": "in vivo, BALB/c nude mice", "details": "50 mg/kg, QD×30"}, "[9]": {"tested_on": "HuPrime® pancreatic cancer PA1170 subcutaneous xenograft model", "experiment": "Pancreatic cancer PA1170 subcutaneous xenograft efficacy model", "assay_type": "in vivo, BALB/c nude mice", "details": "50 mg/kg, QD×30"}}}
{"molecule": "O=P(O)(N1CC1)N1CC1", "note": "[AST-2660]", "values": [{"measurement": "exposure to AST-2660 as % of the AST-3424 exposure", "setting": "[1]; Day 1", "result": 27.2, "unit": "%"}, {"measurement": "exposure to AST-2660 as % of the AST-3424 exposure", "setting": "[1]; Day 29", "result": 11.0, "unit": "%"}, {"measurement": "exposure on Day 29 compared to Day 1", "setting": "[2]", "result": "decreased"}, {"measurement": "concentrations after 8 hours", "setting": "[3]", "result": "lower than 1 ng/ml"}]}
{"molecule": "CC(=O)O[C@H]1C(=O)[C@@]2(C)[C@H]([C@H](OC(=O)c3ccccc3)[C@]3(O)C[C@H](OC(=O)[C@H](O)[C@@H](NC(=O)c4ccccc4)c4ccccc4)C(C)=C1C3(C)C)[C@]1(OC(C)=O)CO[C@@H]1C[C@@H]2O", "note": "[Taxol, reference compound]", "values": [{"measurement": "TGI", "setting": "[4]", "result": 64, "unit": "%"}]}
{"molecule": "O=P1(NCCCl)OCCCN1CCCl", "note": "(stereo not drawn) [ifosfamide, reference compound]", "values": [{"measurement": "TGI (%)", "setting": "[5]; QD×5 (P < 0.001), ifosfamide 60 mg/kg QD×5/week for 2 weeks (p > 0.05)", "result": 27.39, "unit": "%"}, {"measurement": "mean tumor volume", "setting": "[5]; QD×5, ifosfamide 60 mg/kg QD×5/week for 2 weeks, negative control 2238.97", "result": 1636.39, "unit": "mm^3"}, {"measurement": "TGI (%)", "setting": "[6]; QD×5 (P < 0.001), ifosfamide 60 mg/kg QD×5/week for 2 weeks (no statistical difference)", "result": 2.74, "unit": "%"}, {"measurement": "mean tumor volume", "setting": "[6]; QD×5, ifosfamide 60 mg/kg QD×5/week for 2 weeks, vehicle 977.46", "result": 938.33, "unit": "mm^3"}, {"measurement": "TGI (%)", "setting": "[7]; QD×5 (P < 0.001), ifosfamide 6.0 mg/kg QD×5/week for 2 weeks (p > 0.05)", "result": 44.45, "unit": "%"}, {"measurement": "mean tumor volume", "setting": "[7]; QD×5, ifosfamide 6.0 mg/kg QD×5/week for 2 weeks, vehicle 2276.68", "result": 1229.15, "unit": "mm^3"}]}
{"molecule": "O=C(c1cc(Cc2n[nH]c(=O)c3ccccc23)ccc1F)N1CCN(C(=O)C2CC2)CC1", "note": "[olaparib, reference compound]", "values": [{"measurement": "TGI (%)", "setting": "[8]; Day 36, P < 0.001", "result": 47.88, "unit": "%"}, {"measurement": "mean tumor volume", "setting": "[8]; Day 36 after first administration", "result": 344.84, "unit": "mm^3"}, {"measurement": "TGI (%)", "setting": "[9]; Day 30, P > 0.05", "result": 57.66, "unit": "%"}, {"measurement": "mean tumor volume", "setting": "[9]; Day 30 after first administration", "result": 517.75, "unit": "mm^3"}]}
